Assay results published in paper PMC12681378, “Transcriptomic and enzymological evidence for plastid peptidoglycan synthesis in the gymnosperm Picea abies” (The Plant Journal, 2025).

Tests used:
Format in all cases: biochemical
[1] = target: T1, His_AnMurE (46T) (Nostoc sp. PCC 7120 = FACHB-418, UniProt Q8YWF0); experiment: Amplex Red phosphate-release coupled assay; conditions: 30 C, pH 7.6, 10 mM MgCl2, ATP, UDP-MurNAc-L-Ala-D-Glu
T1 construct: gene murE; N-terminal His tag (pPROEX); E. coli
T1 sequence (Q8YWF0 1-496): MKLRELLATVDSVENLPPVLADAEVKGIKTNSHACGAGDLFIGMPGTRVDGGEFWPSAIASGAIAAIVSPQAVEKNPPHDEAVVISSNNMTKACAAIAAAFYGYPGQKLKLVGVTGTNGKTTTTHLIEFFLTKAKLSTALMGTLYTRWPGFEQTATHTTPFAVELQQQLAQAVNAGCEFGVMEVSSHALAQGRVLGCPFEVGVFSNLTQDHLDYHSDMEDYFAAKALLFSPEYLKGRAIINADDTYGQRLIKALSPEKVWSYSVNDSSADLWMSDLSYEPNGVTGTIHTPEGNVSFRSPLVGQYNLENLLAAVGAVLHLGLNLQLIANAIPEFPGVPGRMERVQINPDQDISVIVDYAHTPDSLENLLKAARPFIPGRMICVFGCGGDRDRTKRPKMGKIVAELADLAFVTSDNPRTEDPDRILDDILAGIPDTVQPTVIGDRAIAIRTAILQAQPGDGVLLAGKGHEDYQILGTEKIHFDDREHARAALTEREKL

[2] = target: T1, His_AnMurE (46T); experiment: inhibition seen in Amplex Red coupled assay; conditions: product inhibition; 30 C, pH 7.6
[3] = target: T2, Pseudomonas aeruginosa MurE (Pseudomonas aeruginosa, UniProt Q59650); experiment: Amplex Red phosphate-release coupled assay; NADH assay; conditions: 30 C, pH 7.6, 10 mM MgCl2, ATP
T2 construct: cloned into pET21; E. coli
T2 sequence (Q59650 1-487): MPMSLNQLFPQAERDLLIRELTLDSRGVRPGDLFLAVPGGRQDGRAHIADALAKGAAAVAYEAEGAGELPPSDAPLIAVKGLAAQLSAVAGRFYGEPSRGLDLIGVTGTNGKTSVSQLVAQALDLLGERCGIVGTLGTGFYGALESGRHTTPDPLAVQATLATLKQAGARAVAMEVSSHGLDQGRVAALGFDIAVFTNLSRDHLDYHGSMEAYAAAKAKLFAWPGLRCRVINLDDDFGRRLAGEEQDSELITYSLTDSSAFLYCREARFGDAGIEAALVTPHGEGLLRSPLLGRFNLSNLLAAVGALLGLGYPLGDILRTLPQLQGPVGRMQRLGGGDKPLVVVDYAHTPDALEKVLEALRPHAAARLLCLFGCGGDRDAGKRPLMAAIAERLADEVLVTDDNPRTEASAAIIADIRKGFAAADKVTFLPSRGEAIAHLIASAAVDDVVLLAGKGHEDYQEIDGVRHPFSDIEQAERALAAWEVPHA

[4] = target: T3, PpMurE-TP_Avi_His (1.1T) (Physcomitrium patens, UniProt Q3LHI5); experiment: as above; conditions: 30 C, pH 7.6, 10 mM MgCl2, ATP
T3 construct: gene MurE; from Leu63; transit peptide removed; E. coli
T3 sequence (Q3LHI5 entry or part of it): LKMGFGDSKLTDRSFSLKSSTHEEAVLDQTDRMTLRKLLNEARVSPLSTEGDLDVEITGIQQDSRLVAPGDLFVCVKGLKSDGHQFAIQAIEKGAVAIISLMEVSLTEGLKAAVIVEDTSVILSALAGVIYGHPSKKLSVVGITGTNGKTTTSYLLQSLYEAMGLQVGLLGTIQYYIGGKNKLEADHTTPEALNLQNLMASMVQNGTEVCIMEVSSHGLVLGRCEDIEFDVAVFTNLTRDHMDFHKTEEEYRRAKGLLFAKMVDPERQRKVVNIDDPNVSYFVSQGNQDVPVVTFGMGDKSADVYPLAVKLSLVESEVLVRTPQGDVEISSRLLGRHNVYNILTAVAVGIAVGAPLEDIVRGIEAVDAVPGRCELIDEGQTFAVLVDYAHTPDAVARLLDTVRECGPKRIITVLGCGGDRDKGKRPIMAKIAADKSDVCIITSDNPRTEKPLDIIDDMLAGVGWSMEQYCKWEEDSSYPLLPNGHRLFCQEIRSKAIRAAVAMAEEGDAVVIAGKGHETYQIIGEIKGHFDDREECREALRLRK

[5] = target: T4, Streptococcus pneumoniae MurE (Streptococcus pneumoniae, UniProt Q8CWQ5); experiment: Amplex Red phosphate-release coupled assay; conditions: 30 C, pH 7.6, 10 mM MgCl2, ATP
T4 construct: cloned into pET21; E. coli
T4 sequence (Q8CWQ5 1-481): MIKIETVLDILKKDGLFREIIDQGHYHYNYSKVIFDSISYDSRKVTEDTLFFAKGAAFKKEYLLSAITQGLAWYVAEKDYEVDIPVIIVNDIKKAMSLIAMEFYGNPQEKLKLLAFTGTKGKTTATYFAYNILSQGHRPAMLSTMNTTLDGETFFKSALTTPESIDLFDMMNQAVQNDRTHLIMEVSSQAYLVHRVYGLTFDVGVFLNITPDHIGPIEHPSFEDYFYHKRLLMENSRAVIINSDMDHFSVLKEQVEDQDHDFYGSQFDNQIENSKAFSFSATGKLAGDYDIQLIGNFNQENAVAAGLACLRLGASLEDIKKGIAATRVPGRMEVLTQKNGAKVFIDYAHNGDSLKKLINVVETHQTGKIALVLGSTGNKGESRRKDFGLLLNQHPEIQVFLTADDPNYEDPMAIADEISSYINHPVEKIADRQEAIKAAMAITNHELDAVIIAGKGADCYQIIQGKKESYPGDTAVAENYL

N[C@@H](CSC[C@H](N)C(=O)O)C(=O)O (racemic) [D, L-lanthionine]
Amplex Red phosphate-release coupled assay [1]: D, L‐lanthionine was equally as efficiently incorporated as D, L‐DAP by Anabaena MurE

Nc1ncnc2c1ncn2[C@@H]1O[C@H](COP(=O)(O)OP(=O)(O)O)[C@@H](O)[C@H]1O [ADP]
inhibition seen in Amplex Red coupled assay [2]: an observed inhibitory effect of ADP on AnMurE in the Amplex Red assay

N[C@H](CCC[C@H](N)C(=O)O)C(=O)O [D, L-diaminopimelate]
Amplex Red phosphate-release coupled assay [1]: D, L‐lanthionine was equally as efficiently incorporated as D, L‐DAP by Anabaena MurE | Amplex Red phosphate-release coupled assay; NADH assay ([3]; UDP-MurNAc-L-Ala-D-Glu): an order of magnitude less active than Pseudomonas aeruginosa MurE | Amplex Red phosphate-release coupled assay; NADH assay ([4]; UDP-MurNAc-L-Ala-D-Glu): predominant substrate for both the moss, PpMurE, and cyanobacterial, AnMurE, ligases

NCCCC[C@H](N)C(=O)O [L-lysine]
Amplex Red phosphate-release coupled assay ([5]; UDP-MurNAc-L-Ala-D-Glu): able to utilize both L‐hydroxylysine and L‐lysine as substrates

CC(=O)N[C@H]1[C@@H](OP(=O)(O)OP(=O)(O)OC[C@H]2O[C@@H](n3ccc(=O)[nH]c3=O)[C@H](O)[C@@H]2O)O[C@H](CO)[C@@H](O)[C@@H]1O[C@H](C)C(=O)N[C@@H](C)C(=O)N[C@H](CCC(=O)O)C(=O)O [UDP-N-acetylmuramoyl-L-alanyl-D-glutamate]
Amplex Red phosphate-release coupled assay; NADH assay ([3]; D,L-DAP): D, L‐DAP) and UDP‐N‐acetylmuramoyl‐ L‐alanyl‐D‐glutamate as substrates | Amplex Red phosphate-release coupled assay ([5]; L-lysine): L‐lysine as substrates with UDP‐N‐acetylmuramoyl‐L‐alanyl‐D‐glutamate as the acceptor | Amplex Red phosphate-release coupled assay; NADH assay ([4]; D,L-DAP): UDP‐N‐acetylmuramoyl‐L‐alanyl‐D‐glutamate as the recipient molecule
